Laboratory results from patent US6342501B1, “Pyrrolo[2,3-d] pyrimidines as antiviral agents” (The Regents of the University of Michigan, priority 1994, dated 2002).
Read-outs that look alike come from different tables or passages of the source.

How the values were obtained:
[1] = system: human foreskin fibroblasts (HFF cells); assay: Cytotoxicity in stationary HFF cells (microscopic inspection of plaque assay cells); assay type: cell-based; settings: read-out: HFF
Description: (§1) Two different assays were used to explore cytotoxicity of selected compounds: (i) Cytotoxicity produced in stationary HFF cells was determined by microscopic inspection of cells used in plaque assays which were not affected by the virus [Turk, S. R., et al, Antimicrob.
(§2) Dose-response relationships were constructed by linearly regressing the percent inhibition of parameters derived in the preceding sections against logarithm 10 drug concentrations. […] Samples containing positive controls (acyclovir for HSV-1 and ganciclovir for HCMV) were used in all assays.

KB cells = assay: Cytotoxicity: KB cell growth (crystal violet staining); assay type: cell-based; settings: Homo sapiens, read-out: KBgrv
Description: as §1
Briefly, 96-well cluster dishes were planted with KB cells at 3000-5000 cells per well. After overnight incubation at 37° C., test compound was added in quadruplicate at six to eight concentrations. Plates were incubated at 37° C for 48 hours in a CO2 incubator, rinsed, fixed with 95% ethanol, and stained with 0.1% crystal violet. Acidified ethanol was added and plates read at 570 nm in a spectrophotometer designed to read 96-well ELISA assay plates.
as §2

[2] = system: herpes simplex virus type 1 (HSV-1); assay: HSV-1 ELISA in BSC-1 cells; assay type: cell-based, KOS strain; settings: read-out: HSV-1
Description: (§3) The routine growth and passage of KB and BSC-1 cells was performed in monolayer cultures using minimal essential medium (MEM) with either Hanks salts [MEM(H)] or Earle salts [MEM(E)] supplemented with 10% calf serum. The sodium bicarbonate concentration was varied to meet the buffering capacity required. Cultures of diploid human foreskin fibroblast (HFF) or MRC-5 cells were grown in medium consisting of MEM(E) with 10% fetal bovine serum. Cells were passaged at 1:2 to 1:10 dilutions according to conventional procedures by using 0.05% trypsin plus 0.02% EDTA in a HEPES buffered salt solution (HBS) [Shipman, C., Jr., Proc. Soc. […] HFF and MRC-5 cells were passaged only at 1:2 dilutions. The Towne strain, plaque-purified isolate Po, of HCMV was kindly provided by Dr. Mark Stinski, University of Iowa. The KOS strain of HSV-1 was used in most experiments and was provided by Dr. Sandra K. Weller, University of Conn.
High titer HSV-1 stocks were prepared by infecting BSC cells at an m.o.i. of <0.1 as detailed previously [Turk, S. R., et al., Antimicrob.
Ninety-six-well cluster dishes were planted with 10,000 BSC-1 cells per well in 200 μL per well of MEM(E) plus 10% calf serum. After overnight incubation at 37° C., selected drug concentrations in quadruplicate and HSV-1 at a concentration of 100 p.f.u./well were added. Following a 3-day incubation at 37° C., medium was removed, plates were blocked, rinsed, and horse radish peroxidase conjugated rabbit anti-HSV-1 antibody was added. Following removal of the antibody containing solution, plates were rinsed, and then developed by adding 150 μL per well of a solution of tetramethylbenzidine as substrate. The reaction was stopped with H2SO4 and absorbance was read at 450 and 570 nm. Drug effects were calculated as a percentage of the reduction in absorbance in the presence of each drug concentration compared to absorbance obtained with virus in the absence of drug.
as §2

[3] = system: human cytomegalovirus (HCMV); assay: microbe, parasite or virus in culture; assay type: cell-based, Towne strain; settings: for IC50: Human betaherpesvirus 5, HFF, read-out: HCMV; for antiviral activity against HCMV (in words): comment on Table 1 data
Description: as §3
Stock HCMV was prepared by infecting HFF cells at a multiplicity of infection (m.o.i.) of <0.01 plaque-forming units (p.f.u.) per cell. Cell growth medium was changed every four days until cytopathology was evident in all cells (approximately 21 days). Supernatant fluids were retained as the virus stock.
Virus titers were determined using monolayer cultures of HFF cells for HCMV and monolayer cultures of BSC-1 cells for HSV-1 as described earlier [Prichard, M. N., et al., J. Virol. […] Briefly, HFF or BSC-1 cells were planted as described above in 96-well cluster dishes and incubated overnight at 37. degree. C. in a humidified 3% C02 -97% air atmosphere. The next day cultures were inoculated with HCMV or HSV-1 and serially diluted 1:3 across the remaining eleven columns of the 96-well plate. Cultures were incubated at 37. degree. C. for 2 hr to permit virus adsorption and then virus inoculum was replaced with 0.2 ml of fresh medium. Cultures were incubated for seven days for HCMV, two or three days for HSV-1, the medium was removed, and the cell sheets were stained with 0.1% crystal violet in 20% methanol.
HFF cells in 24-well cluster dishes were infected with approximately 100 p.f.u. of HCMV per cm^2 cell sheet using the procedures detailed above. Following virus adsorption, compounds dissolved in growth medium were added to duplicate wells in four to eight selected concentrations. After incubation at 37° C. for 7 to 10 days, cell sheets were fixed, stained with crystal violet and microscopic plaques enumerated as described above.
After virus adsorption, inoculum was replaced with 0.2 mL of fresh medium containing test compounds. The first row of 12 wells was left undisturbed and served as virus controls. Each well in the second row received an additional 0.1 mL of medium with test compound at three times the desired final concentration. The contents of the 12 wells were mixed by repeated pipetting and then serially diluted 1:3 along the remaining wells. In this manner, six compounds could be tested in duplicate on a single plate with concentrations from […]. Plates were incubated at 37° C. for seven days, subjected to one cycle of freezing and thawing; aliquots from each of the eight wells of a given column were transferred to the first column of a fresh 96-well monolayer culture of HFF cells. Contents were mixed and serially diluted 1:3 across the remaining eleven columns of the secondary plate. Each column of the original primary plate was diluted across a separate plate in this manner. Cultures were incubated, plaques were enumerated, and titers calculated as described above.
as §2

[4] = Human alphaherpesvirus 1, BSC-1, 72 h
[5] = Table 1, cytotoxicity, stationary HFF cells, visual
[6] = Table 1, cytotoxicity, KB cell growth, 48 hours
[7] = Human alphaherpesvirus 1, 72 h, Table 1, fifty-percent inhibitory concentration, ELISA, BSC-1 cells, 3-day incubation

| Structure (SMILES) | IC50 ([1]; HFF) [µM] | IC50 (KB cells; KB, 48 h) [µM] | IC50 [2, 4] [µM] | IC50 [3] [µM] | antiviral activity against HCMV (in words) [3] | IC50 [1, 5] [µM] | IC50 (KB cells; [6]) [µM] | IC50 [2, 7] [µM] |
| --- | --- | --- | --- | --- | --- | --- | --- | --- |
| Cc1ccccc1Cn1cc(C(N)=O)c2c(N)ncnc21 [Compound 636, 4-amino-7-(2-methylbenzyl)-pyrrolo[2,3-d]pyrimidine-5-carboxamide] | 100 | ≥ 222 | > 100 | 14.5 | – | – | – | – |
| Cc1ccc(Cn2cc(C(N)=O)c3c(N)ncnc32)cc1 [Compound 658, 4-amino-7-(4-methylbenzyl)-pyrrolo [2,3-d]pyrimidine-5-carboxamide] | 141 | ≥ 222 | > 100 | 181 | – | – | – | – |
| NC(=O)c1cn(Cc2ccccc2)c2ncnc(N)c12 [Compound 659, 4-amino-7-benzyl-pyrrolo[2,3-d]pyrimidine-5-carboxamide] | 118 | 75 | 32.6 | 171 | – | – | – | – |
| Cc1cccc(Cn2cc(C(N)=O)c3c(N)ncnc32)c1 [Compound 826, 4-amino-7-(3-methylbenzyl)-pyrrolo[2,3-d]pyrimidine-5-carboxamide] | ≥ 222 | ≥ 222 | > 100 | ≥ 222 | – | – | – | – |
| COc1ccc(Cn2cc(C(N)=O)c3c(N)ncnc32)cc1 [Compound 839, 4-amino-7-(4-methoxybenzyl)-pyrrolo[2,3-d]pyrimidine-5-carboxamide] | 127 | 47 | 35 | 13 | good to excellent antiviral activity | – | – | – |
| CC(C)(C)c1ccc(Cn2cc(C(N)=O)c3c(N)ncnc32)cc1 [Compound 845, 4-amino-7-(4-t-butylbenzyl)-pyrrolo[2,3-d]pyrimidine-5-carboxamide] | 100 | 1 | 50 | 28 | – | – | – | – |
| N#Cc1c(N)n(CC=Cc2ccccc2)c2ncnc(N)c12 [Compound 1329, 4,6-diamino-7-(3-phenyl)prop-2-enyl-pyrrolo[2,3-d]pyrimidine-5-carbonitrile] | – | – | – | 19 | – | 46 | 33 | 40 |
| N#Cc1c(Br)n(Cc2ccc([N+](=O)[O-])cc2)c2ncnc(N)c12 [Compound 1331, 4-amino-6-bromo-7-(4-nitrobenzyl)-pyrrolo[2,3-d]pyrimidine-5-carbonitrile] | – | – | – | > 10 | – | > 10 | > 100 | > 100 |
| N#Cc1c(Br)n(CCCc2ccccc2)c2ncnc(N)c12 [Compound 1347, 4-amino-6-bromo-7-(3-phenyl)propyl-pyrrolo[2,3-d]pyrimidine-5-carbonitrile] | – | – | – | > 10 | – | > 10 | > 100 | ≥ 222 |
| N#Cc1c(N)n(Cc2ccc([N+](=O)[O-])cc2)c2ncnc(N)c12 [Compound 1348, 4,6-diamino-7-(4-nitrobenzyl)-pyrrolo[2,3-d]pyrimidine-5-carbonitrile] | – | – | – | 0.6 | good to excellent antiviral activity | > 10 | > 100 | 156 |
| N#Cc1c(N)n(CCCc2ccccc2)c2ncnc(N)c12 [Compound 1350, 4,6-diamino-7-(3-phenyl)propyl-pyrrolo[2,3-d]pyrimidine-5-carbonitrile] | – | – | – | 5 | excellent activity | > 100 | 50 | 121 |
| N#Cc1c(Br)n(CCc2ccccc2)c2ncnc(N)c12 [Compound 1351, 4-amino-6-bromo-7-(2-phenyl)ethyl-pyrrolo[2,3-d]pyrimidine-5-carbonitrile] | – | – | – | 1 | excellent activity | > 100 | > 100 | ≥ 222 |
| N#Cc1c(N)n(Cc2ccc(N)cc2)c2ncnc(N)c12 [Compound 1352, 4,6-diamino-7-(4-aminobenzyl)-pyrrolo[2,3-d]pyrimidine-5-carbonitrile] | – | – | – | > 100 | good to excellent antiviral activity | > 100 | 146 | 100 |
| N#Cc1c(Br)n(Cc2ccc(F)cc2)c2ncnc(N)c12 [Compound 1353, 4-amino-6-bromo-7-(4-flurobenzyl)-pyrrolo[2,3-d]pyrimidine-5-carbonitrile] | – | – | – | 1.4 | – | 116 | > 100 | 60 |
| N#Cc1c(N)n(Cc2ccc(Cl)cc2)c2ncnc(N)c12 [Compound 1356, 4,6-diamino-7-(4-chlorobenzyl)-pyrrolo[2,3-d]pyrimidine-5-carbonitrile] | – | – | – | 0.2 | good to excellent antiviral activity | 46 | 76 | 17 |
| N#Cc1cn(Cc2ccc([N+](=O)[O-])cc2)c2ncnc(N)c12 [Compound 1360, 4-amino-7-(4-nitrobenzyl)-pyrrolo[2,3-d]pyrimidine-5-carbonitrile] | – | – | – | 1.6 | good to excellent antiviral activity | > 10 | > 100 | > 100 |
| N#Cc1c(Br)n(CC=Cc2ccccc2)c2ncnc(N)c12 [Compound 1361, 4-amino-6-bromo-7-(3-phenyl)prop-2-enyl-pyrrolo[2,3-d]pyrimidine-5-carbonitrile] | – | – | – | > 100 | – | > 100 | > 100 | > 100 |
| N#Cc1cn(CCCc2ccccc2)c2ncnc(N)c12 [Compound 1362, 4-amino-7-(3-phenyl)propyl-pyrrolo[2,3-d]pyrimidine-5-carbonitrile] | – | – | – | > 10 | – | > 10 | > 100 | > 100 |
| CC(c1ccccc1)n1c(Br)c(C#N)c2c(N)ncnc21 (centres unmarked) [Compound 1363, 4-amino-6-bromo-7-((2-phenyl)eth-2-yl)-pyrrolo[2,3-d]pyrimidine-5-carbonitrile] | – | – | – | 2.7 | good to excellent antiviral activity | > 100 | 50 | 90 |
| CNc1ncnc2c1c(C#N)c(Br)n2CCc1ccccc1 [Compound 1463, 4-methylamino-6-bromo-7-(2-phenyl)ethyl-pyrrolo[2,3-d]pyrimidine-5-carbonitrile] | – | – | – | > 10 | – | > 10 | – | – |
